Experimental data published in patent US9096832B2, “Differentiation of human embryonic stem cells” (LifeScan, Inc., priority 2007, dated 2015).

System: H9 embryonic stem cells
Experiment: Microarray analysis of definitive endoderm stage cells on […] or MEFs +/- Wnt-3a (Table VI)
Assay type: cell-based, human
Conditions: low serum
Protocol: Controls for each group included cells plated on [sequence]—coated dishes and cultured in MEF-conditioned medium or cells plated on MEFs and cultured in ES medium. All groups contained three biological replicates and each biological replicate was repeated on two separate gene chips.
Sample preparation, hybridization, and image analysis were performed according to the Affymetrix Human Genome U133 Plus 2.0 Array. Following normalization and a log transformation, data analysis was performed using OmniViz® software (MA) and [sequence] […] Significant differences in gene expression between the samples were evaluated using analysis of variance and an F-test with adjusted P-value (Benjamini and Hochberg correction) of less-than or equal to 0.05. Only genes with a present call in at least one group were included in the analysis.

## Activin A: activin A (a member of the TGFβ superfamily), R&D Systems; 'w/o wnt' in Table VII = 100 ng/ml Activin A without Wnt3a
On MATRIGEL
  Intensity (log): neuropilin 1: −1.623
  Intensity (log): noggin: −1.636
  Intensity (log): splicing factor, arginine serine-rich 5: 0.7481
  Intensity (log): stanniocalcin 1: 2.411
On MATRIGEL, r13
  Intensity (log): ESTs: −4.827
On MATRIGEL, r16
  Intensity (log): ESTs: −3.437
On MATRIGEL, r20
  Intensity (log): solute carrier family 16 (monocarboxylic acid transporters), member 3: −0.06641
On MATRIGEL, r30
  Intensity (log): Homo sapiens solute carrier family 16 (monocarboxylic acid transporters), member 3 (SLC16A3), mRNA: 0.7103
On MATRIGEL, r49
  Intensity (log): ESTs: −0.04716
On MATRIGEL, r50
  Intensity (log): glycophorin B (includes Ss blood group): −2.852
On MATRIGEL, r62
  Intensity (log): ESTs: −4.936
On MATRIGEL, r66
  Intensity (log): Homo sapiens HNF-3beta mRNA for hepatocyte nuclear factor-3 beta, complete cds: −2.718
On MATRIGEL, r81
  Intensity (log): ESTs: −2.336
On MATRIGEL, r92
  Intensity (log): ESTs: −2.896
On MATRIGEL, r98
  Intensity (log): ESTs: −3.098
On MATRIGEL, r108
  Intensity (log): ESTs: −1.401
On MATRIGEL, r121
  Intensity (log): Homo sapiens phorbolin-like protein MDS019 (MDS019), mRNA: −1.119
On MATRIGEL, r129
  Intensity (log): ESTs: −1.555
On MATRIGEL, r136
  Intensity (log): ESTs: −0.7315
On MATRIGEL, r137
  Intensity (log): ESTs: −2.036
On MATRIGEL, r142
  Intensity (log): ESTs: −0.6486
On MATRIGEL, r145
  Intensity (log): ESTs: −1.782
On MATRIGEL, r165
  Intensity (log): Cluster Incl. AB028021: Homo sapiens HNF-3beta mRNA for hepatocyte nuclear factor-3 beta, complete cds: −1.5339
On MATRIGEL, r205
  Intensity (log): hypothetical protein FLJ23403: −1.456
On MATRIGEL, r215
  Intensity (log): matrix metalloproteinase 14 (membrane-inserted): −2.057
On MATRIGEL, r218
  Intensity (log): Homo sapiens glycophorin B (includes Ss blood group) (GYPB), mRNA: −0.9473
On MATRIGEL, r234
  Intensity (log): ESTs: 0.8128
On MATRIGEL, r240
  Intensity (log): ESTs: 1.068
On MATRIGEL, r241
  Intensity (log): ESTs: −1.412
On MATRIGEL, r250
  Intensity (log): KIAA0878 protein: 1.1189
On MATRIGEL, r260
  Intensity (log): ESTs: 1.481
On MATRIGEL, r270
  Intensity (log): Homo sapiens matrix metalloproteinase 14 (membrane-inserted) (MMP14), mRNA: −0.7235
On MATRIGEL, r278
  Intensity (log): ESTs: 0.5216
On MATRIGEL, r290
  Intensity (log): ESTs: 0.3072
On MATRIGEL, r301
  Intensity (log): ESTs: −3.574
On MATRIGEL, r314
  Intensity (log): ESTs: −0.05909
On MATRIGEL, r315
  Intensity (log): Homo sapiens hypothetical protein FLJ23403 (FLJ23403), mRNA: −1.485
On MATRIGEL, r319
  Intensity (log): ESTs: −0.1824
On MATRIGEL, r332
  Intensity (log): Homo sapiens KIAA0878 protein (KIAA0878), mRNA: 2.0265
On MATRIGEL, r340
  Intensity (log): phorbolin-like protein MDS019: −1.118
On MATRIGEL, r347
  Intensity (log): ESTs: 0.3539
On MATRIGEL, r376
  Intensity (log): ESTs: −0.3497
On MATRIGEL, r377
  Intensity (log): ESTs: −0.9033
On MEFS
  Intensity (log): 6-phosphofructo-2-kinasefructose-2,6-biphosphatase 4: 1.6
  Intensity (log): ESTs, Highly similar to IHH_HUMAN INDIAN HEDGEHOG PROTEIN PRECURSOR (H. sapiens): 0.5905
  Intensity (log): ESTs, Moderately similar to JE0284 Mm-1 cell derived transplantability-associated protein 1b (H. sapiens): 4.222
  Intensity (log): ESTs, Weakly similar to FCE2 MOUSE LOW AFFINITY IMMUNOGLOBULIN EPSILON FC RECEPTOR (M. musculus): 3.48
  Intensity (log): ESTs, Weakly similar to the 331st table hypothetical protein KIAA0555 (H. sapiens): 0.4436
  Intensity (log): G protein-coupled receptor: 5.053
  Intensity (log): G protein-coupled receptor 49: 2.505
  Intensity (log): Homo sapiens Kell blood group (KEL), mRNA: −0.3839
  Intensity (log): Homo sapiens MLL septin-like fusion (MSF), mRNA: −1.5
  Intensity (log): Homo sapiens Mix-like homeobox protein 1 (MILD1) mRNA, complete cds: 0.922
  Intensity (log): Homo sapiens Rho GTPase activating protein 6 (ARHGAP6), transcript variant 2, mRNA: −1.285
  Intensity (log): Homo sapiens TBX3-iso protein (TBX3-iso), mRNA: 1.07
  Intensity (log): Homo sapiens angiopoietin 2 (ANGPT2), mRNA: 0.5968
  Intensity (log): Homo sapiens ankyrin-like with transmembrane domains 1 (ANKTM1), mRNA: 2.819
  Intensity (log): Homo sapiens apolipoprotein A-I (APOA1), mRNA: 2.469
  Intensity (log): Homo sapiens apolipoprotein A-II (APOA2), mRNA: 4.469
  Intensity (log): Homo sapiens arylsulfatase E (chondrodysplasia punctata 1) (ARSE), mRNA: 3.184
  Intensity (log): Homo sapiens atrophin-1 interacting protein 1; activin receptor interacting protein 1 (KIAA0705), mRNA: −1.32
  Intensity (log): Homo sapiens beta-site APP cleaving enzyme (BACE) mRNA, complete cds: 1.754
  Intensity (log): Homo sapiens cDNA FLJ11550 fis, clone HEMBA1002970: 4.216
  Intensity (log): Homo sapiens cDNA FLJ12993 fis, clone NT2RP3000197: 2.069
  Intensity (log): Homo sapiens cDNA FLJ13221 fis, clone NT2RP4002075: 1.31
  Intensity (log): Homo sapiens cardiac ventricular troponin C mRNA, complete cds: 1.4377
  Intensity (log): Homo sapiens cartilage linking protein 1 (CRTL1), mRNA: −0.8052
  Intensity (log): Homo sapiens cell adhesion molecule with homology to L1CAM (close homologue of L1) (CHL1), mRNA: −2.5002
  Intensity (log): Homo sapiens chromosome 19, cosmid R31181: 0.2239
  Intensity (log): Homo sapiens clone 23736 mRNA sequence: 4.507
  Intensity (log): Homo sapiens cryptic mRNA, complete cds: −0.6735
  Intensity (log): Homo sapiens cystatin S (CST4), mRNA: 3.87
  Intensity (log): Homo sapiens cystatin SA (CST2), mRNA: 2.1671
  Intensity (log): Homo sapiens cystatin SN (CST1), mRNA: 4.64
  Intensity (log): Homo sapiens cytidine deaminase (CDA), mRNA: −1.67
  Intensity (log): Homo sapiens dual specificity phosphatase 4 (DUSP4), mRNA: 4.122
  Intensity (log): Homo sapiens fibroblast growth factor 8 (androgen-induced) (FGF8), mRNA: 0.01583
  Intensity (log): Homo sapiens fibroblast growth factor 17 (FGF17), mRNA: 2.4872
  Intensity (log): Homo sapiens frizzled-related protein (FRZB), mRNA: 3.676
  Intensity (log): Homo sapiens gastrin-releasing peptide (GRP), mRNA: 0.5098
  Intensity (log): Homo sapiens glycophorin E (GYPE), mRNA: −1.501
  Intensity (log): Homo sapiens glycophorin Erik STA (GPErik) gene complete cds: −0.4544
  Intensity (log): Homo sapiens growth differentiation factor 3 (GDF3), mRNA: 2.875
  Intensity (log): Homo sapiens haptoglobin (HP), mRNA: 0.477
